Measurements as given in ChEMBL document CHEMBL3108728, “Anti-inflammatory activity of rhamnetin and a model of its binding to c-Jun NH2-terminal kinase 1 and p38 MAPK” (J Nat Prod, 2014).
The source made the active and inactive calls. No cut-off for these calls is given here.

Legend:
[1] = target: T1, MAP kinase p38 (Homo sapiens) (UniProt O15264+Q15759+Q16539+P53778); experiment: Binding affinity to human p38 MAPK expressed in Escherichia coli by circular dichroism method
[2] = target: Mitogen-activated protein kinase 8 (Homo sapiens) (UniProt P45983); experiment: Binding affinity to human C-terminal His6-tagged JNK1alpha1 (1 to 364) expressed in Escherichia coli by circular dichroism method
[3] = target: T1, MAP kinase p38 (Homo sapiens); experiment: Binding affinity to human p38 MAPK expressed in Escherichia coli by spectrofluorometry
[4] = target: Mitogen-activated protein kinase 8 (Homo sapiens) (UniProt P45983); experiment: Binding affinity to human C-terminal His6-tagged JNK1alpha1 (1 to 364) expressed in Escherichia coli by spectrofluorometry
[5] = target: T2, Monocyte differentiation antigen CD14 (Mus musculus) (UniProt P10810); experiment: Inhibition of CD14 in mouse RAW264.7 cells at 20 uM by Western blotting analysis; assay type: cell-based
T2 sequence (whole entry): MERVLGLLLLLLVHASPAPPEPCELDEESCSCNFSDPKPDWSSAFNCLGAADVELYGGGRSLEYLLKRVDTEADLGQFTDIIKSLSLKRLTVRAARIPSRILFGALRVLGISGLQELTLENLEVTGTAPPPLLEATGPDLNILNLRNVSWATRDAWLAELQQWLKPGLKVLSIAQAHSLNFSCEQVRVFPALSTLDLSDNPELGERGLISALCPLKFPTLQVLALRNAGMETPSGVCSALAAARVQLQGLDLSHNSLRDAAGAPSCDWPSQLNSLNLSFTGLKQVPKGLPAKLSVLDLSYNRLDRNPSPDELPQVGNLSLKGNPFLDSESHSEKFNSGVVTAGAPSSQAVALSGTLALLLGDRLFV

[6] = target: Mitogen-activated protein kinase 8 (Mus musculus) (UniProt Q91Y86); experiment: Inhibition of IFNgamma-induced JNK phosphorylation in mouse RAW264.7 cells at 20 uM by Western blotting analysis relative to untreated control; assay type: cell-based
[7] = target: Mitogen-activated protein kinase 3 (Mus musculus) (UniProt Q63844); experiment: Inhibition of IFNgamma-induced ERK phosphorylation in mouse RAW264.7 cells at 20 uM by Western blotting analysis relative to untreated control; assay type: cell-based
[8] = target: T3, MAP kinase p38 (Mus musculus) (UniProt P47811+O08911+Q9WUI1+Q9Z1B7); experiment: Inhibition of IFNgamma-induced p38 MAPK phosphorylation in mouse RAW264.7 cells at 20 uM by Western blotting analysis relative to untreated control; assay type: cell-based
RAW264.7 [9] = experiment: Antiinflammatory activity against mouse RAW264.7 cells assessed as reduction of IFNgamma-induced NO production at 20 uM after 24 hrs; assay type: functional; set-up: scale not given: the % may be the effect or the level left
RAW264.7 [10] = experiment: Antiinflammatory activity against mouse RAW264.7 cells assessed as reduction of IFNgamma-induced NO production at 10 uM after 24 hrs; assay type: functional; set-up: scale not given: the % may be the effect or the level left
RAW264.7 [11] = experiment: Antiinflammatory activity against mouse RAW264.7 cells assessed as inhibition of LPS-induced COX2 protein expression at 20 uM by Western blotting analysis; assay type: functional
[12] = target: Mitogen-activated protein kinase 3 (Mus musculus) (UniProt Q63844); experiment: Inhibition of LPS-induced ERK phosphorylation in mouse RAW264.7 cells at 20 uM by Western blotting analysis; assay type: cell-based
[13] = target: T3, MAP kinase p38 (Mus musculus); experiment: Inhibition of LPS-induced p38 MAPK phosphorylation in mouse RAW264.7 cells at 20 uM by Western blotting analysis; assay type: cell-based
[14] = target: Mitogen-activated protein kinase 8 (Mus musculus) (UniProt Q91Y86); experiment: Inhibition of LPS-induced JNK phosphorylation in mouse RAW264.7 cells at 20 uM by Western blotting analysis; assay type: cell-based
RAW264.7 [15] = experiment: Antiinflammatory activity against mouse RAW264.7 cells assessed as reduction of LPS-induced mMIP-1 mRNA expression at 25 uM after 3 hrs by RT-PCR analysis relative to untreated control; assay type: functional; set-up: scale not given: the % may be the effect or the level left
RAW264.7 [16] = experiment: Antiinflammatory activity against mouse RAW264.7 cells assessed as reduction of LPS-induced mTNFalpha mRNA expression at 25 uM after 3 hrs by RT-PCR analysis relative to untreated control; assay type: functional, cell-based
RAW264.7 [17] = experiment: Antiinflammatory activity against mouse RAW264.7 cells assessed as reduction of LPS-induced mMIP-2 mRNA expression at 25 uM after 3 hrs by RT-PCR analysis relative to untreated control; assay type: functional, cell-based
RAW264.7 [18] = experiment: Antiinflammatory activity against mouse RAW264.7 cells assessed as reduction of LPS-induced mMIP-2 level at 20 uM after 24 hrs by ELISA relative to untreated control; assay type: functional; set-up: scale not given: the % may be the effect or the level left
RAW264.7 [19] = experiment: Antiinflammatory activity against mouse RAW264.7 cells assessed as reduction of LPS-induced mMIP-2 level at 10 uM after 24 hrs by ELISA relative to untreated control; assay type: functional; set-up: scale not given: the % may be the effect or the level left
RAW264.7 [20] = experiment: Antiinflammatory activity against mouse RAW264.7 cells assessed as inhibition of LPS-induced TNFalpha production at 20 uM after 24 hrs by ELISA; assay type: functional; settings: RAW264.7, 24 h
RAW264.7 [21] = experiment: Antiinflammatory activity against mouse RAW264.7 cells assessed as inhibition of LPS-induced TNFalpha production at 10 uM after 24 hrs by ELISA; assay type: functional; settings: RAW264.7, 24 h
RAW264.7 [22] = experiment: Antiinflammatory activity against mouse RAW264.7 cells assessed as reduction of LPS-induced NO production at 20 uM after 24 hrs; assay type: functional; set-up: scale not given: the % may be the effect or the level left
RAW264.7 [23] = experiment: Antiinflammatory activity against mouse RAW264.7 cells assessed as reduction of LPS-induced NO production at 10 uM after 24 hrs; assay type: functional; set-up: scale not given: the % may be the effect or the level left
HaCaT = experiment: Cytotoxicity against human HaCaT cells at 100 uM after 24 hrs by MTT assay relative to untreated control; assay type: cell-based
[24] = Cytotoxicity against mouse RAW264.7 cells assessed as cell survival at 100 uM after 24 hrs by MTT assay relative to untreated control; assay type: cell-based; settings: read-out: Survival
RAW264.7 [25] = experiment: Cytotoxicity against mouse RAW264.7 cells up to 12.5 uM after 24 hrs by MTT assay relative to untreated control; assay type: cell-based; settings: raw264.7, 24 h

Mitogen-activated protein kinase 8 (Mus musculus), sequence (Q91Y86 whole entry): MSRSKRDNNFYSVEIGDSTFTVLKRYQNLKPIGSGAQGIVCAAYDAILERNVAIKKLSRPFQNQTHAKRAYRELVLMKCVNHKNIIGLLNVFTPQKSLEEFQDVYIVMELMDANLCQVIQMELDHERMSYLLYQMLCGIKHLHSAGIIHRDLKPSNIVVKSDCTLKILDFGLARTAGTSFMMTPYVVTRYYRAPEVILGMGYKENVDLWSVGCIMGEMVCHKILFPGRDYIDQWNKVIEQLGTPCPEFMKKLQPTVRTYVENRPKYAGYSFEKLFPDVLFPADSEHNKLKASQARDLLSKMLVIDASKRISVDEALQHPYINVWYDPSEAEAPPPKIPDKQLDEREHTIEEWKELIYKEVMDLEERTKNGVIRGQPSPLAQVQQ
Mitogen-activated protein kinase 3 (Mus musculus), sequence (Q63844 whole entry): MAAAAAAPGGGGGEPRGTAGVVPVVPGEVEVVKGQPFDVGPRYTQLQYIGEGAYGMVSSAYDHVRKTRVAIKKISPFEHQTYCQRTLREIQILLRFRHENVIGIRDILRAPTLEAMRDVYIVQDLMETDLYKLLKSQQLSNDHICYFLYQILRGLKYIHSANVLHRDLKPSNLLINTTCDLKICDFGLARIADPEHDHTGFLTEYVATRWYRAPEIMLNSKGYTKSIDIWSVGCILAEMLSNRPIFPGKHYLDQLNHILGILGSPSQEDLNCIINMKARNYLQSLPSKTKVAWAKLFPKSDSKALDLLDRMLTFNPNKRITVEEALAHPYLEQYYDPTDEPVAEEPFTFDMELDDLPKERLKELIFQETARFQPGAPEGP
Mitogen-activated protein kinase 8 (Homo sapiens), sequence (P45983 whole entry): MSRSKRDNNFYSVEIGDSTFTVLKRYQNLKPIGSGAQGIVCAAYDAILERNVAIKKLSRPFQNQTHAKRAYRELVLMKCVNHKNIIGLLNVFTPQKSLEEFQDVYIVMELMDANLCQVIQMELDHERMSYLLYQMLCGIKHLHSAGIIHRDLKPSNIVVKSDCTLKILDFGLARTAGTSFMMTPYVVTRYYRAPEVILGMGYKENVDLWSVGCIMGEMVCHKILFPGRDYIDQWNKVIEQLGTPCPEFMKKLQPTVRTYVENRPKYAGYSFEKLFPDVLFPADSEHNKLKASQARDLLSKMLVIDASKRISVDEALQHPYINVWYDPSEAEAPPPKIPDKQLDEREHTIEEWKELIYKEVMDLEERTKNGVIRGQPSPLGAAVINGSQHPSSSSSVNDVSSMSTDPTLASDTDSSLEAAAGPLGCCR

SMILES: COc1cc(O)c2c(=O)c(O)c(-c3ccc(O)c(O)c3)oc2c1 [RHAMNETIN]
- Activity [1]: Active
- Activity [2]: Active
- K [3]: 2.31 ×10⁷ /M
- K [4]: 9.7 ×10⁸ /M
- inhibition [5]: inactive
- inhibition [6]: 92%
- inhibition [7]: 38%
- inhibition [8]: 58%
- Activity (RAW264.7 [9]): 91.5%
- Activity (RAW264.7 [10]): 73.2%
- inhibition at 20 µM (RAW264.7 [11]): 76%
- inhibition [12]: 27%
- inhibition [13]: 51%
- inhibition [14]: 64%
- Activity (RAW264.7 [15]): 96.2%
- Activity (RAW264.7 [16]): Active
- Activity (RAW264.7 [17]): Active
- Activity (RAW264.7 [18]): 77%
- Activity (RAW264.7 [19]): 42%
- inhibition at 20 µM (RAW264.7 [20]): 63%
- inhibition at 10 µM (RAW264.7 [21]): 54%
- Activity (RAW264.7 [22]): 74%
- Activity (RAW264.7 [23]): 62%
- Activity (HaCaT): Non-toxic
- viability at 24 h, 100 µM [24]: > 55%
- Activity (RAW264.7 [25]): Non-toxic
